Measured values reported in ChEMBL document CHEMBL5543172, “Novel Isoalantolactone-Based Derivatives as Potent NLRP3 Inflammasome Inhibitors: Design, Synthesis, and Biological Characterization” (J Med Chem, 2024).
Calls of active or inactive are those of the source. The rule behind the calls is not given here.

What was measured:
Homo sapiens = organism: Homo sapiens; assay: Inhibition of GlyRalpha1beta (unknown origin) at 1 uM relative to control
[1] = molecular target: P2X purinoceptor 3 (Homo sapiens) (UniProt P56373); assay: Activation of P2X3 (unknown origin) at 1 uM relative to control
Chain of P2X purinoceptor 3 (Homo sapiens) (P56373 whole entry, the tested form may be a part): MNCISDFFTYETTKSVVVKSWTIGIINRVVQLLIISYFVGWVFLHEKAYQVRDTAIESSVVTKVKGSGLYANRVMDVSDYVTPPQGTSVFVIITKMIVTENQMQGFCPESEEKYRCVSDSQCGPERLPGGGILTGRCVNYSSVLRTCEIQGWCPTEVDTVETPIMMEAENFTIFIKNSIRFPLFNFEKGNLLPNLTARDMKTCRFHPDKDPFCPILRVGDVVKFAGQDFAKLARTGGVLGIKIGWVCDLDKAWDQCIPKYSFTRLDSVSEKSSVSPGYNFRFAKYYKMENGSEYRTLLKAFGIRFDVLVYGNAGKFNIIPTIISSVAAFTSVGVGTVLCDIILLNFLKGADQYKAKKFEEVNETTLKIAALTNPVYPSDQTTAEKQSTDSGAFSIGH

[2] = molecular target: NACHT, LRR and PYD domains-containing protein 3 (Mus musculus) (UniProt Q8R4B8); assay: Inhibition of NLRP3 inflammasome activation in LPS/Nigericin induced mouse BMDM cells assessed as effect on pro-IL-1 beta expression at 0.25 to 1 uM preincubated with LPS for 3 hrs followed by compound addition for 40 mins and further stimulated with nigericin for 40 mins by Western blot analysis; format: cell-based; conditions: dose 0.25-1 µM, time 80.0 min
Chain of NACHT, LRR and PYD domains-containing protein 3 (Mus musculus) (Q8R4B8 whole entry, the tested form may be a part): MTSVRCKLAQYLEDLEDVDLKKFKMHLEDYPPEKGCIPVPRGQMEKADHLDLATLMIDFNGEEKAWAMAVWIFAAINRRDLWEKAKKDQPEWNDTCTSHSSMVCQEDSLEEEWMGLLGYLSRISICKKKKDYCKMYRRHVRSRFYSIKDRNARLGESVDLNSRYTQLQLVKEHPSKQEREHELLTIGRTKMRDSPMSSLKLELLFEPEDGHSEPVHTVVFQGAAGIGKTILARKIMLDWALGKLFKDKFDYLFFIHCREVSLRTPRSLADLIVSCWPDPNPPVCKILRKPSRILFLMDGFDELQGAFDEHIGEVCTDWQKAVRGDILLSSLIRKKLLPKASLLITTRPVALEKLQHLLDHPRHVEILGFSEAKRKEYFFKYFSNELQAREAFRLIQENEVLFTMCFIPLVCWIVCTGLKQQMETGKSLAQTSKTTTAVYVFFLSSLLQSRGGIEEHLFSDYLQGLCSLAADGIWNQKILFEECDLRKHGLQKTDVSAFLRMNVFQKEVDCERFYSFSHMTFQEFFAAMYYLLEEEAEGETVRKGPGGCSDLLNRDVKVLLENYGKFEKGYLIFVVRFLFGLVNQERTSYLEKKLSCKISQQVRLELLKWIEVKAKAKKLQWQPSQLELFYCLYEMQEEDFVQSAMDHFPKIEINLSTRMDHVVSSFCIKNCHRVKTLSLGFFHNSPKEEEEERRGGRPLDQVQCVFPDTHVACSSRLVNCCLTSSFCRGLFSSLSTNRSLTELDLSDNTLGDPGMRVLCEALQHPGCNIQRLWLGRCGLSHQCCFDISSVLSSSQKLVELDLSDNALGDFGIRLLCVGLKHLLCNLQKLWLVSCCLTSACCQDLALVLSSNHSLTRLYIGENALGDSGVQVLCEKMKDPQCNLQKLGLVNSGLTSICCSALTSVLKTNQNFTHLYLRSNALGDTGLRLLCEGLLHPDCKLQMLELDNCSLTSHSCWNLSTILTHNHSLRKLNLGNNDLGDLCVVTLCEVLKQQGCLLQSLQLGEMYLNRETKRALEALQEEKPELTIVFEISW

THP-1 [3] = assay: Inhibition of pyroptosis in LPS/nigericin induced PMA-differentiated human THP-1 cells assessed as reduction in LDH release at […] preincubated with LPS for 3 hrs followed by compound addition for 40 mins and further stimulated with nigericin for 40 mins by LDH assay; format: functional, cell-based; conditions: dose lower 0.25 µM, time 80.0 min
[4] = molecular target: Transient receptor potential cation channel subfamily V member 1 (Homo sapiens) (UniProt Q8NER1); assay: Inhibition of TRPV1 (unknown origin) at 1 uM relative to control
Chain of Transient receptor potential cation channel subfamily V member 1 (Homo sapiens) (Q8NER1 whole entry, the tested form may be a part): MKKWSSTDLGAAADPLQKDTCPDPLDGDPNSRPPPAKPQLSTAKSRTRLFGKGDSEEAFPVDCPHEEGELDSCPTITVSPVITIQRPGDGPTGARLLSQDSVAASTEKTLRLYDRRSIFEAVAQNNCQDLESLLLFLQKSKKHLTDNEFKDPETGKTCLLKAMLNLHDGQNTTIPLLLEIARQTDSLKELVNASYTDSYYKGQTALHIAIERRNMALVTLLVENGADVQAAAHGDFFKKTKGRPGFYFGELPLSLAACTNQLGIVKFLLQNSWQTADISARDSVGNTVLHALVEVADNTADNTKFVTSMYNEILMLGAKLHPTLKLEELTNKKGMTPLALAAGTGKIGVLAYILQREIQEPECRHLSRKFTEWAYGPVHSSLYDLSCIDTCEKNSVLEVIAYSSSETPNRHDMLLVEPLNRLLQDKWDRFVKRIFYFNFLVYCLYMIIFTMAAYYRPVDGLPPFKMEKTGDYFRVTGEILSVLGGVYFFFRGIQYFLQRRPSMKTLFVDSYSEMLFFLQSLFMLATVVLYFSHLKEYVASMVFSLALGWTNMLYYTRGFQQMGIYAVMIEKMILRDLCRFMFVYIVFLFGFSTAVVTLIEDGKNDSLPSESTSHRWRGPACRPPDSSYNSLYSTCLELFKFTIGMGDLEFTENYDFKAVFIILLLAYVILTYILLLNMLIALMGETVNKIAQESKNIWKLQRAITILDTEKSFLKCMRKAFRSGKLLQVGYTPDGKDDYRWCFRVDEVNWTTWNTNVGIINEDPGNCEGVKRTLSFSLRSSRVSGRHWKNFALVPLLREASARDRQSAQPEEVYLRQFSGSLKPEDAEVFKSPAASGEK

Mus musculus [5] = assay: Anti-colitis activity against DSS-induced ulcerative colitis C57BL/6 mouse model assessed as reduction in DAI score at 15 to 30 mg/kg, ip administered daily and measured upto 10 days; format: functional, organism-based; conditions: dose 15-30 mg/kg, time <= 10.0 day
[6] = Cytotoxicity against human PBMC cells at 1.25 uM measured after 24 hrs by CCK-8 method; format: toxicity, cell-based
[7] = molecular target: Muscarinic acetylcholine receptor M3 (Homo sapiens) (UniProt P20309); assay: Activation of muscarinic M3 receptor (unknown origin) at 1 uM relative to control
[8] = molecular target: Androgen receptor (Homo sapiens) (UniProt P10275); assay: Activation of Androgen receptor (unknown origin) at 1 uM relative to control
Chain of Androgen receptor (Homo sapiens) (P10275 whole entry, the tested form may be a part): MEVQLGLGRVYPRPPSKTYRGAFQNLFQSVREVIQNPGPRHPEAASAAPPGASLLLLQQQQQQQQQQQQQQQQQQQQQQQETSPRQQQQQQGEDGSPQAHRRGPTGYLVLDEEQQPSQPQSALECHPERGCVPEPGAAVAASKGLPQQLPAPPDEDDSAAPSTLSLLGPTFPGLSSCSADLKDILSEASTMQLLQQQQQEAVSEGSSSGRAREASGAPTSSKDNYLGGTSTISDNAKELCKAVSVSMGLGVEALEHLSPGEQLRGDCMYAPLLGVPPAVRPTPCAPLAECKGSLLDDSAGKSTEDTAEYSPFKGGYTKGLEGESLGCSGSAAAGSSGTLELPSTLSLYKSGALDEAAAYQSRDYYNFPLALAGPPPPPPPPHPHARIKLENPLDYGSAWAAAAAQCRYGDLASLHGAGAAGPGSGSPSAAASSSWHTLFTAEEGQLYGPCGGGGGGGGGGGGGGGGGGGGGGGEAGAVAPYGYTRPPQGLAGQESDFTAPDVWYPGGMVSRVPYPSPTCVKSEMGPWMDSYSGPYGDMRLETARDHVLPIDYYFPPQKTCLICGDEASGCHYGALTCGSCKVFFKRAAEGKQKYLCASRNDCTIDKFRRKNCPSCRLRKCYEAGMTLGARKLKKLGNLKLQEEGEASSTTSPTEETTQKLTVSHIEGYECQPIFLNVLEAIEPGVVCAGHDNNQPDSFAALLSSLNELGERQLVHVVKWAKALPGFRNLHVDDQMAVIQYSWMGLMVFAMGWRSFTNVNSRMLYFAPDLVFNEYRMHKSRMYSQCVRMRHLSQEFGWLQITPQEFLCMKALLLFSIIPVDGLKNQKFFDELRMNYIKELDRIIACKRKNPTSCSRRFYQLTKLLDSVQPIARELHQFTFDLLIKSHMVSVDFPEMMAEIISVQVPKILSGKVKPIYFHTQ

[9] = molecular target: NACHT, LRR and PYD domains-containing protein 3 (Mus musculus) (UniProt Q8R4B8); assay: Inhibition of NLRP3 inflammasome activation in LPS/Nigericin induced mouse BMDM cells assessed as suppression of IL-1beta secretion preincubated with LPS for 3 hrs followed by compound addition for 40 mins and further stimulated with nigericin for 40 mins by Western blot analysis; format: cell-based; conditions: dose 0.25-1 µM, time 80.0 min
Mus musculus [10] = assay: Anti-colitis activity against DSS-induced ulcerative colitis C57BL/6 mouse model assessed as improvement in body weight loss at 15 to 30 mg/kg, ip administered daily and measured upto 10 days; format: functional, organism-based; conditions: dose 15-30 mg/kg, time <= 10.0 day
[11] = molecular target: Transient receptor potential cation channel subfamily V member 1 (Homo sapiens) (UniProt Q8NER1); assay: Activation of TRPV1 (unknown origin) at 1 uM relative to control
[12] = molecular target: NACHT, LRR and PYD domains-containing protein 3 (Mus musculus, UniProt Q8R4B8); assay: Inhibition of NLRP3 inflammasome activation in LPS-activated mouse BMDM cells assessed as inhibition of nigericin induced IL-1beta secretion preincubated with LPS for 3 hrs followed by compound addition for 40 mins and further stimulated with nigericin for 40 mins by ELISA method; format: cell-based
Chain of NACHT, LRR and PYD domains-containing protein 3 (Q8R4B8 whole entry, the tested form may be a part): as the sequence (Q8R4B8 whole entry, the tested form may be a part) above

[13] = Metabolic stability in human liver microsomes assessed as half life preincubated for 5 mins followed by NADPH addition and measured upto 60 mins by LC-MS/MS analysis; format: ADME, Microsome; conditions: time < 65 min
THP-1 [14] = assay: Cytotoxicity against human THP-1 cells at 4 uM measured after 24 hrs by CCK-8 method; format: functional, cell-based
[15] = Drug distribution in C57BL/6 mouse plasma at 30 mg/kg, ip measured after 0.5 hrs by LC-MS/MS analysis; format: ADME, organism-based
[16] = molecular target: Prostaglandin G/H synthase 2 (Homo sapiens) (UniProt P35354); assay: Inhibition of COX2 (unknown origin) at 1 uM relative to control
[17] = molecular target: Sodium-dependent serotonin transporter (Homo sapiens) (UniProt P31645); assay: Inhibition of 5-HTT (unknown origin) at 1 uM relative to control
Chain of Sodium-dependent serotonin transporter (Homo sapiens) (P31645 whole entry, looked up): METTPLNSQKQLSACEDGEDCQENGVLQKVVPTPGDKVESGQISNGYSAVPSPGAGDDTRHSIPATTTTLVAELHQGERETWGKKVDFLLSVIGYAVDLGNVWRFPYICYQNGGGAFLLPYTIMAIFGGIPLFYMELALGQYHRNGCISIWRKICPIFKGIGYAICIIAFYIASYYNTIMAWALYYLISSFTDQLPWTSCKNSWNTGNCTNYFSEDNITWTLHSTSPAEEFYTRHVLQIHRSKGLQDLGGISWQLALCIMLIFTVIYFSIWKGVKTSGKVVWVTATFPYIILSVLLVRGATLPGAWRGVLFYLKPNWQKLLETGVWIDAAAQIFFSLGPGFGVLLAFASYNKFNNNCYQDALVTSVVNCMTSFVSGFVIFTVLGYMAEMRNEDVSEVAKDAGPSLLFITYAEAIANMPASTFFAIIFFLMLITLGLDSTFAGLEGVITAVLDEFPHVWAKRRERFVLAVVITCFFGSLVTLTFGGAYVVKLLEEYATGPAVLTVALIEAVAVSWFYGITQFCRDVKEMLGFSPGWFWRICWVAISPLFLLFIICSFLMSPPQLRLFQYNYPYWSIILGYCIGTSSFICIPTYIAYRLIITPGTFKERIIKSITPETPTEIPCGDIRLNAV

BMDM = assay: Cytotoxicity against mouse BMDM cells at 4 uM measured after 24 hrs by CCK-8 method; format: toxicity, cell-based
[18] = molecular target: Glucocorticoid receptor (Homo sapiens) (UniProt P04150); assay: Inhibition of GR receptor (unknown origin) at 1 uM relative to control
Chain of Glucocorticoid receptor (Homo sapiens) (P04150 whole entry): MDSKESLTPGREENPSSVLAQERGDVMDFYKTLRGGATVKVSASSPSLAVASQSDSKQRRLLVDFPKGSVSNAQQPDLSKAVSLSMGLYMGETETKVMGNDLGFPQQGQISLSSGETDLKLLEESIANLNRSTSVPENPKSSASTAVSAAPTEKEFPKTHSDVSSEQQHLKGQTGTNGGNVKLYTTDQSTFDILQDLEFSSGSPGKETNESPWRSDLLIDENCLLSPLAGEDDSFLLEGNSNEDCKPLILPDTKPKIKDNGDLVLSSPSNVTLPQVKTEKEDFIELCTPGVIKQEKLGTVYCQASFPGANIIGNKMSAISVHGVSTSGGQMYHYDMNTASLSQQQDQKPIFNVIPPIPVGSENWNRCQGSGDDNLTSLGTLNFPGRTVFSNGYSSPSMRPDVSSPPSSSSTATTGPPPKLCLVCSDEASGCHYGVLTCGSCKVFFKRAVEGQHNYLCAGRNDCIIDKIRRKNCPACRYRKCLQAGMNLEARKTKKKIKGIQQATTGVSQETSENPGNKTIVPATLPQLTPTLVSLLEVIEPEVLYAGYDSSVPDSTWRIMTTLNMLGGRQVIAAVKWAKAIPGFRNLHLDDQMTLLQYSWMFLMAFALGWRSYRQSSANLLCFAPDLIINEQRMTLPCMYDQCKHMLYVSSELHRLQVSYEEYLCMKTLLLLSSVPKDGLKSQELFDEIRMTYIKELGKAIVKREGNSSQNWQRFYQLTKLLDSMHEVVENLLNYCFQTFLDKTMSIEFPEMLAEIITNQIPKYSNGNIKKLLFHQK

[19] = molecular target: Sodium-dependent serotonin transporter (Homo sapiens) (UniProt P31645); assay: Activation of 5-HTT (unknown origin) at 1 uM relative to control
[20] = Drug distribution in C57BL/6 mouse colon at 30 mg/kg, ip measured after 24 hrs by LC-MS/MS analysis; format: ADME, organism-based; conditions: read-out: Drug uptake
Cytochrome P450 2B6 = Cytochrome P450 2B6 (Homo sapiens, UniProt P20813); assay: Inhibition of CYP2B6 in human liver microsomes preincubated for 5 mins followed by NADPH addition and measured after 30 to 60 mins by LC-MS/MS analysis; format: ADME, Microsome
[21] = molecular target: Histamine H1 receptor (Homo sapiens) (UniProt P35367); assay: Activation of Histamine H1 receptor (unknown origin) at 1 uM relative to control
THP-1 [22] = assay: Binding affinity to NLRP3deltaLRR mutant in PMA- differentiated human THP-1 cells assessed as protection of pronase-mediated protein degradation at 100 to 1000 uM pretreated with LPS for 3 hrs followed by incubation with compound for 50 mins followed by pronase digestion for 30 mins by DARTS analysis; format: cell-based; conditions: dose 100-1000 µM, time 80.0 min
[23] = molecular target: Cannabinoid receptor 2 (Homo sapiens) (UniProt P34972); assay: Activation of CB2 receptor (unknown origin) at 1 uM relative to control
Chain of Cannabinoid receptor 2 (Homo sapiens) (P34972 whole entry): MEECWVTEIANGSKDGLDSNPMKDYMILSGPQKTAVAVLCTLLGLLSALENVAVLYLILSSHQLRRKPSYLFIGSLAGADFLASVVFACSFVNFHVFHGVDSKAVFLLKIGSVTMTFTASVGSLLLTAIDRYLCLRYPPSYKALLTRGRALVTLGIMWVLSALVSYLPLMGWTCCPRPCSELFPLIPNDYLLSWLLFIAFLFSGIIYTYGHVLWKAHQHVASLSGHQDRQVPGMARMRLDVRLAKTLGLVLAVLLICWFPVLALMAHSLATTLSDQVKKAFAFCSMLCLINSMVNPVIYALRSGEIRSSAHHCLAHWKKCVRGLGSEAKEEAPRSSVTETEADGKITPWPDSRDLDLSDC

[24] = molecular target: Androgen receptor (Homo sapiens) (UniProt P10275); assay: Inhibition of Androgen receptor (unknown origin) at 1 uM relative to control
[25] = Cmax in male C57BL/6 mouse at 30 mg/kg, ip measured upto 1440 mins by LC-MS/MS analysis; format: ADME, organism-based; conditions: in vivo
[26] = Metabolic stability in mouse liver microsomes assessed as half life preincubated for 5 mins followed by NADPH addition and measured upto 60 mins by LC-MS/MS analysis; format: ADME, Microsome; conditions: time < 65 min
Mus musculus [27] = assay: Anti-colitis activity against DSS-induced ulcerative colitis C57BL/6 mouse model assessed as alleviation of mucosal damage in colon at 15 to 30 mg/kg, ip administered daily and measured after 10 days by H and E staining based analysis; format: functional, organism-based; conditions: dose 15-30 mg/kg, time 10.0 day
[28] = molecular target: Adenosine receptor A2a (Homo sapiens) (UniProt P29274); assay: Activation of adenosine A2A receptor (unknown origin) at 1 uM relative to control
[29] = AUC (0 to t) in male C57BL/6 mouse at 30 mg/kg, ip measured upto 1440 mins by LC-MS/MS analysis; format: ADME, organism-based; conditions: in vivo
HEK293T [30] = assay: Inhibition of HA-NLRP3 C279A mutant/FLAG tagged NEK7 interaction (unknown origin) transfected in HEK293T cells at 1 uM incubated for 24 hrs by Western blot analysis; format: cell-based; conditions: Homo sapiens
HEK293T [31] = assay: Inhibition of HA-NLRP3/FLAG tagged NEK7 interaction (unknown origin) transfected in HEK293T cells at 1 uM incubated for 24 hrs by Western blot analysis; format: cell-based; conditions: Homo sapiens
Mus musculus [32] = assay: Anti-colitis activity against DSS-induced ulcerative colitis C57BL/6 mouse model assessed as reduction in TNF-alpha level at 15 to 30 mg/kg, ip by ELISA method; format: functional, organism-based; conditions: dose 15-30 mg/kg
[33] = molecular target: Sodium-dependent noradrenaline transporter (Homo sapiens) (UniProt P23975); assay: Activation of NET (unknown origin) at 1 uM relative to control

inhibition (Homo sapiens): < 50%
Activity [1]: < 50%
inhibition [2]: inactive
inhibition [4]: < 50%
Activity [7]: < 50%
Activity [8]: < 50%
inhibition [9]: Dose-Dependent Effect
Activity [11]: < 50%
IC50 [12]: 739 nM
half-life [13]: 3.04 h
concentration at 0.5 h [15]: 0.22 ng/mL
inhibition [16]: < 50%
inhibition [17]: < 50%
inhibition [18]: < 50%
Activity [19]: < 50%
concentration at 24 h [20]: 81.3 ng/g
IC50 (Cytochrome P450 2B6): > 100000 nM
Activity [21]: < 50%
Activity [23]: < 50%
inhibition [24]: < 50%
Cmax [25]: 1.57 ng/mL
half-life [26]: 1.09 h
Activity [28]: < 50%
AUC(0-t) at 24 h [29]: 16.8 ng·h/mL
Activity [33]: < 50%
SMILES: C=C1C(=O)O[C@@H]2C[C@@]3(C)CC[C@@H](OC(=O)c4cnc(Cl)cc4Cl)C(=C)[C@@H]3C[C@H]12
inhibition (THP-1 [3]): Active
Activity (Mus musculus [5]): Active
Activity [6]: Toxic
Activity (Mus musculus [10]): Active
Activity (THP-1 [14]): Active
Activity (BMDM): Toxic
Activity (THP-1 [22]): Active
Activity (Mus musculus [27]): Active
inhibition (HEK293T [30]): inactive
inhibition (HEK293T [31]): Active
Activity (Mus musculus [32]): Active
